Patent publication US20230072421A1, “TARGETED RADIOPHARMACEUTICALS FOR THE DIAGNOSIS AND TREATMENT OF PROSTATE CANCER” (Bayer AS, priority 2019, published 2023)

Columns and labels:
22Rv1 cells = experiment: Cell proliferation assay (CellTiter-Glo, 5-day exposure), 22Rv1; assay type: cell-based; settings: 22Rv1, 1000 cells/well, Th-227 labelled at 375 kBq/nmol, mean of 1 to 6 experiments
Description: (§1) Inhibition of cell proliferation of Thorium-227 labeled PMSA SMOL ligands was tested different prostate cancer cell lines, namely 22Rv1, VCaP, C4-2 (all from ATCC, Manassas, Va., USA) and LNCaP (DMSZ, Braunschweig). Cells were seeded using the following conditions in 384 well plates (Corning) in 30 μl of growth media at 4000 cells/well for VCaP cells and 1000 cells/well for 22Rv1, C4-2 and LNCaP cells.
(§2) Cells were cultivated an incubator at 37° C. and 5% C02 over night. […] In sister plates cell viability at treatment start (d=0) was determined using CellTiter-Glo® assay (CTG, Promega, Madison, Wis., USA), by adding 30 μl per well CTG solution, incubation for 10 min and reading of Luminescence in a PheraStarFSX instrument (BMG Labtech). After a 5-day exposure in the presenced of test compounds, cell viability of treated or untreated control cells was determined again using CellTiter-Glo® assay (Promega, Madison, Wis., USA). […] The DRC software is a Biobook Spreadsheet that was developed by Bayer AG and Bayer Business Services on the IDBS E-Workbook Suite platform (IDBS: ID Business Solutions Ltd., Guildford, UK).

C4-2 cells = experiment: Cell proliferation assay (CellTiter-Glo, 5-day exposure), C4-2; assay type: cell-based; settings: C4-2, 1000 cells/well, Th-227 labelled at 375 kBq/nmol, mean of 1 to 6 experiments
Description: as §1, §2

VCaP cells = experiment: Cell proliferation assay (CellTiter-Glo, 5-day exposure), VCaP; assay type: cell-based; settings: 4000 cells/well, Th-227 labelled at 375 kBq/nmol, mean of 1 to 6 experiments
Description: as §1, §2

[1] = Biodistribution study in LNCaP tumor-bearing mice (Th227 counted in organs); assay type: in vivo, SCID mice; settings: 1500 kBq/kg
Description: (§3) SCID mice were randomly assigned to experimental groups, ten animals per group (efficacy) or n=3-5 per time point of biodistribution study. At the initiation of the study, a testosterone pellet was subcutaneously transplanted, the animals were shaved, tattooed and each cage was labeled with the cage number, study number and number of animals per cage.
(§4) LNCaP human prostate cancer cells were cultured as described according to the supplier's protocols. Cells were harvested for transplantation in a subconfluent (70%) state. Animals were injected with 5×10^6 LNCaP cells suspended in 100% Matrigel subcutaneously into the flank of the mice.
Biodistribution study: When tumors reached a predetermined size in mice of ˜50 mm^2 animals were randomized into groups (n=3 animals/time point) and the radioactive compound was once applied intravenously. The i.v. application volume was 100 μl/mice.
At the predetermined time point, n=3 animals were sacrificed, the organs removed, weight and measured in a Germanium detector to count the Th227 in the sample.

[2] = test system: LNCaP human prostate cancer cells; experiment: LNCaP xenograft efficacy study (T/C tumor area); assay type: in vivo, SCID mice; settings: Example IV; day 36 after start of therapy; once 1 MBq/kg
Description: as §3, §4
Efficacy study: When tumors reached a predetermined size in mice of 35-50 mm^2 animals were randomized into treatment and control groups (n=10 animals/group) and treatment with the defined radioactive dose was started. The i.v. application volume was 100 μl/mice.
Tumor response was assessed by determination of the tumor area (product of the longest diameter and its perpendicular) using a caliper. The animal body weight was monitored as a measure for treatment-related toxicity. Measurement of tumor area and body weight was performed two to three times weekly.
Animals were sacrificed when showing signs of toxicity (>20% body weight loss) or when tumors reached a size of approximately 200 mm^2.
Tumor growth inhibition is presented as T/C ratio (Treatment/Control) calculated with tumor areas when the vehicle control group had to be closed.

Compound: Cc1cc(C(=O)NCCN(CCCN(CCNC(=O)c2cc(C)n(CC(=O)O)c(=O)c2[O-])CCNC(=O)c2cc(C)n(CC(=O)NCC3CCC(C(=O)NC(Cc4cnc5ccccc5c4)C(=O)NCCCCC(NC(=O)NC(CCC(=O)O)C(=O)O)C(=O)O)CC3)c(=O)c2[O-])CCNC(=O)c2cc(C)n(CC(=O)NCC3CCC(C(=O)NC(Cc4cnc5ccccc5c4)C(=O)NCCCCC(NC(=O)NC(CCC(=O)O)C(=O)O)C(=O)O)CC3)c(=O)c2[O-])c([O-])c(=O)n1CC(=O)O.[227Th+4] (stereo not drawn) [Example 22-C dimer-227Th]
- Proliferation assay on cancer cell lines by TTCs Default Pivot #3 IC50 [kBq/mL] 22Rv1 1000cells 375kBq/nmol (mean) (22Rv1 cells): 0.89 kBq/mL
- Proliferation assay on cancer cell lines by TTCs Default Pivot #3 IC50 [kBq/mL] C4-2 1000cells 375kBq/nmol (mean) (C4-2 cells): 2.56 kBq/mL
- Proliferation assay on cancer cell lines by TTCs Default Pivot #3 IC50 [kBq/mL] VCap 4000cells 375kBq/nmol (mean) (VCaP cells): 3.65 kBq/mL
- Th-227 in Blood ([1]; 0.25 h): 3.35% ID Th-227/g organ
- Th-227 in Liver ([1]; 0.25 h): 1.79% ID Th-227/g organ
- Th-227 in Spleen ([1]; 0.25 h): 13.87% ID Th-227/g organ
- Th-227 in Tumor ([1]; 0.25 h): 4.57% ID Th-227/g organ
- Th-227 in bone ([1]; 0.25 h): 2.50% ID Th-227/g organ
- Th-227 in brain ([1]; 0.25 h): 0.13% ID Th-227/g organ
- Th-227 in kidney ([1]; 0.25 h): 61.44% ID Th-227/g organ
- Th-227 in large intestine ([1]; 0.25 h): 0.87% ID Th-227/g organ
- Th-227 in lung ([1]; 0.25 h): 3.56% ID Th-227/g organ
- Th-227 in muscle ([1]; 0.25 h): 1.27% ID Th-227/g organ
- Th-227 in prostate ([1]; 0.25 h): 5.47% ID Th-227/g organ
- Th-227 in salivary glands ([1]; 0.25 h): 2.63% ID Th-227/g organ
- Th-227 in small intestine ([1]; 0.25 h): 1.64% ID Th-227/g organ
- Th-227 in Blood ([1]; 1 hr): 0.53% ID Th-227/g organ
- Th-227 in Liver ([1]; 1 hr): 0.41% ID Th-227/g organ
- Th-227 in Spleen ([1]; 1 hr): 8.93% ID Th-227/g organ
- Th-227 in Tumor ([1]; 1 hr): 4.49% ID Th-227/g organ
- Th-227 in bone ([1]; 1 hr): 1.12% ID Th-227/g organ
- Th-227 in brain ([1]; 1 hr): 0.01% ID Th-227/g organ
- Th-227 in kidney ([1]; 1 hr): 96.67% ID Th-227/g organ
- Th-227 in large intestine ([1]; 1 hr): 0.23% ID Th-227/g organ
- Th-227 in lung ([1]; 1 hr): 1.30% ID Th-227/g organ
- Th-227 in muscle ([1]; 1 hr): 0.28% ID Th-227/g organ
- Th-227 in prostate ([1]; 1 hr): 1.66% ID Th-227/g organ
- Th-227 in salivary glands ([1]; 1 hr): 0.69% ID Th-227/g organ
- Th-227 in small intestine ([1]; 1 hr): 0.38% ID Th-227/g organ
- Th-227 in Blood ([1]; 4 hr): 0.10% ID Th-227/g organ
- Th-227 in Liver ([1]; 4 hr): 0.60% ID Th-227/g organ
- Th-227 in Spleen ([1]; 4 hr): 1.68% ID Th-227/g organ
- Th-227 in Tumor ([1]; 4 hr): 2.18% ID Th-227/g organ
- Th-227 in bone ([1]; 4 hr): 0.74% ID Th-227/g organ
- Th-227 in brain ([1]; 4 hr): 0.00% ID Th-227/g organ
- Th-227 in kidney ([1]; 4 hr): 45.26% ID Th-227/g organ
- Th-227 in large intestine ([1]; 4 hr): 0.29% ID Th-227/g organ
- Th-227 in lung ([1]; 4 hr): 0.38% ID Th-227/g organ
- Th-227 in muscle ([1]; 4 hr): 0.05% ID Th-227/g organ
- Th-227 in prostate ([1]; 4 hr): 0.20% ID Th-227/g organ
- Th-227 in salivary glands ([1]; 4 hr): 0.36% ID Th-227/g organ
- Th-227 in small intestine ([1]; 4 hr): 0.21% ID Th-227/g organ
- Th-227 in Blood ([1]; 24 h): 0.02% ID Th-227/g organ
- Th-227 in Liver ([1]; 24 h): 078% ID Th-227/g organ
- Th-227 in Spleen ([1]; 24 h): 1.96% ID Th-227/g organ
- Th-227 in Tumor ([1]; 24 h): 2.23% ID Th-227/g organ
- Th-227 in bone ([1]; 24 h): 0.46% ID Th-227/g organ
- Th-227 in brain ([1]; 24 h): 0.00% ID Th-227/g organ
- Th-227 in kidney ([1]; 24 h): 11.35% ID Th-227/g organ
- Th-227 in large intestine ([1]; 24 h): 0.21% ID Th-227/g organ
- Th-227 in lung ([1]; 24 h): 0.25% ID Th-227/g organ
- Th-227 in muscle ([1]; 24 h): 0.00% ID Th-227/g organ
- Th-227 in prostate ([1]; 24 h): 0.02% ID Th-227/g organ
- Th-227 in salivary glands ([1]; 24 h): 0.18% ID Th-227/g organ
- Th-227 in small intestine ([1]; 24 h): 0.10% ID Th-227/g organ
- Th-227 in Blood ([1]; 96 h): 0.00% ID Th-227/g organ
- Th-227 in Liver ([1]; 96 h): 0.31% ID Th-227/g organ
- Th-227 in Spleen ([1]; 96 h): 0.43% ID Th-227/g organ
- Th-227 in Tumor ([1]; 96 h): 0.66% ID Th-227/g organ
- Th-227 in bone ([1]; 96 h): 0.83% ID Th-227/g organ
- Th-227 in brain ([1]; 96 h): 0.00% ID Th-227/g organ
- Th-227 in kidney ([1]; 96 h): 2.18% ID Th-227/g organ
- Th-227 in large intestine ([1]; 96 h): 0.04% ID Th-227/g organ
- Th-227 in lung ([1]; 96 h): 0.16% ID Th-227/g organ
- Th-227 in muscle ([1]; 96 h): 0.00% ID Th-227/g organ
- Th-227 in prostate ([1]; 96 h): 0.00% ID Th-227/g organ
- Th-227 in salivary glands ([1]; 96 h): 0.19% ID Th-227/g organ
- Th-227 in small intestine ([1]; 96 h): 0.04% ID Th-227/g organ
- T/Carea [2]: 0.67
